From US20230302159A1, “COMPOUNDS AND COMPOSITIONS FOR TUMOR DETECTION AND SURGICAL GUIDANCE” (Cornell University, priority 2020, published 2023)
Read-outs that look alike come from different tables or passages of the source. Marks after values point to notes of the source that are not given here.

Assays:
Type in all cases: physicochemical
[1] = Optical properties of the CypH dyes: absorbance maximum and extinction coefficient in EtOH (Table 1); settings: for Ex Coeff (M^−1cm^−1) @ Abs Max: at absorbance maximum
Experimental: (§1) Characterization: All new CypH dyes were characterized by proton NMR and mass spectrometry to confirm identity. NMR data was consistent with the structure and mass spectrometry results gave the expected mass of the dye±0.5 amu. An HPLC method was developed (see below) and used to assess dye purity. […] Retention times on the column generally correlated with lipophilicity of the dyes with water soluble dyes containing sulfate groups eluting out earlier (@10.6 min for CypH-3, 6, 9) than CypH-1 (@11.9 min) and the more lipophilic dyes later. Optical properties of the dyes, acid dissociation constants and solubilities were also determined. Synthetic intermediates were also characterized by proton NMR.

[2] = Solubility of the CypH dyes (Table 1)
Experimental: as §1

[3] = Fluorescence properties of the CypH dyes at pH 5.0 and pH 7.5 (Table 2); settings: for Ratio Intensity pH 5.0/7.5: fluorescence intensity pH 5.0 over pH 7.5
Description: The excitation and emission maxima of CypH-1 are 760 and 777 nm, respectively. The signal intensity ratio of pH 5 over pH 7.5 was about 10. The meso-bridge ring size, lipophilicity and electro-density of CypH-1 was modified to provide better optical property. […] The best compound from this group was CypH-5 whose fluorescence ratio of pH 5.0/pH 7.5 was increased to 22. Based on this initial structure and property relationship, the second round of 10 new analogs were designed using CypH-5 as the core, focusing on modifying the electron density on the aniline ring and the indolinium ring. Various alkyl groups, such as methyl, ethyl, propyl, isopropyl and their combinations, were applied to these two positions.
The CypH analogs with other longer alkyl chains had much lower background fluorescence. […] Among them, CypH-11, which has a methyl isopropyl aniline and an isopropyl group on the indolinium ring, gave a 112-fold enhancement in fluorescence signal. CypH-11 has absorbance and emission maxima at 766 nm and 785 nm, respectively (FIG. 4) and was selected as the lead compound (vide infra).

[4] = organic solvent or mixture, in EtOH, read-out: Solubility

Structure (SMILES) | Ex Coeff (M^−1cm^−1) @ Abs Max [1] | Abs. Max (nm) in EtOH [1] | Solubility ([2]; in H2O) | Ratio Intensity pH 5.0/7.5 [3] | FL Intensity pH 5.0 [3] | FL Max (nm) pH 5.0 [3] | FL Intensity pH 7.5 [3] | FL Max (nm) pH 7.5 [3] | Solubility ([2]; in EtOH) | Solubility [2, 4] | Ratio Intensity pH 5.0/7.5 ([3]; listed as 5)
CC(C)N(C)c1ccc(OC2=C(/C=C/C3=[N+](CCCS(=O)(=O)[O-])c4ccccc4C3(C)C)CCC/C2=C\C=C2\N(CCCS(=O)(=O)[O-])c3ccccc3C2(C)C)cc1.[Na+] [CypH-9] | 176,300 M^−1cm^−1 | 769# nm | >1 mM in | 5.3 | 5125 | 793 nm | 972 | 789 nm | – | – | –
CC(C)CN1/C(=C/C=C2\CCCC(/C=C/C3=[N+](CC(C)C)c4ccccc4C3(C)C)=C2Oc2ccc(N(C)C)cc2)C(C)(C)c2ccccc21.[I-] [CypH-19] | 240,900 M^−1cm^−1 | 774 nm | – | 68.2 | 3137 | 794 nm | 46 | 784 nm | >1 mM in | – | –
CCN1/C(=C/C=C2\CCCC(/C=C/C3=[N+](CC)c4ccccc4C3(C)C)=C2Oc2ccc(N(C)C(C)C)cc2)C(C)(C)c2ccccc21 [CypH-10] | 175,400 M^−1cm^−1 | 765 nm | – | 13.0 | 5380 | 788 nm | 414 | 781 nm | – | > 1000 µM | –
CCN(C)c1ccc(OC2=C(/C=C/C3=[N+](C)c4ccccc4C3(C)C)CC/C2=C\C=C2\N(C)c3ccccc3C2(C)C)cc1.[Cl-] [CypH-8] | 72,700 M^−1cm^−1 | 777 nm | – | 41.4 | 2816 | 801 nm | 68 | 791 nm | >1 mM in | – | –
CN(C)c1ccc(OC2=C(/C=C/C3=[N+](C)c4ccccc4C3(C)C)CC/C2=C\C=C2\N(C)c3ccccc3C2(C)C)cc1.[Cl-] [CypH-4] | 58,000 M^−1cm^−1 | 775 nm | – | 23.2 | 1924 | 801 nm | 83 | 790 nm | >1 mM in | – | –
CCN1/C(=C/C=C2\CCCC(/C=C/C3=[N+](CC)c4ccccc4C3(C)C)=C2Oc2ccc(N(C)C)cc2)C(C)(C)c2ccccc21 [CypH-2] | 139,100 M^−1cm^−1 | 764 nm | – | 30.6 | 4254 | 787 nm | 139 | 786 nm | – | > 1000 µM | –
CCN(C)c1ccc(OC2=C(/C=C/C3=[N+](C(C)C)c4ccccc4C3(C)C)CCC/C2=C\C=C2\N(C(C)C)c3ccccc3C2(C)C)cc1 [CypH-17] | 269,100 M^−1cm^−1 | 770 nm | – | 57.3 | 4468 | 791 nm | 78 | 782 nm | – | > 1000 µM | –
CC(C)N(C)c1ccc(OC2=C(/C=C/C3=[N+](C)c4ccccc4C3(C)C)CCC/C2=C\C=C2\N(C)c3ccccc3C2(C)C)cc1 [CypH-12] | 255,600 M^−1cm^−1 | 767 nm | – | 8.7 | 4285 | 787 nm | 493 | 784 nm | – | > 1000 µM | –
CCN(C)c1ccc(OC2=C(/C=C/C3=[N+](C)c4ccccc4C3(C)C)CCC/C2=C\C=C2\N(C)c3ccccc3C2(C)C)cc1 [CypH-5] | 134,000 M^−1cm^−1 | 762 nm | – | 22 | 5089 | 786 nm | 227 | 787 nm | – | > 1000 µM | 22.4
CC(C)CN1/C(=C/C=C2\CCCC(/C=C/C3=[N+](CC(C)C)c4ccccc4C3(C)C)=C2Oc2ccc(N(C)C(C)C)cc2)C(C)(C)c2ccccc21.[I-] [CypH-13] | 218,100 M^−1cm^−1 | 774 nm | – | 35.0 | 4204 | 796 nm | 120 | 790 nm | >1 mM in | – | –
CCCN1/C(=C/C=C2\CCCC(/C=C/C3=[N+](CCC)c4ccccc4C3(C)C)=C2Oc2ccc(N(C)CC)cc2)C(C)(C)c2ccccc21.[I-] [CypH-18] | 257,300 M^−1cm^−1 | 772 nm | – | 38.2 | 4553 | 792 nm | 117 | 782 nm | >1 mM in | – | –
CCN(CC)c1ccc(OC2=C(/C=C/C3=[N+](C)c4ccccc4C3(C)C)CCC/C2=C\C=C2\N(C)c3ccccc3C2(C)C)cc1.[Cl-] [CypH-14] | 215,800 M^−1cm^−1 | 767 nm | – | 5.9 | 5627 | 786 nm | 958 | 784 nm | >1 mM in | – | –
CCN(C)c1ccc(OC2=C(/C=C/C3=[N+](CCCS(=O)(=O)[O-])c4ccccc4C3(C)C)CCC/C2=C\C=C2\N(CCCS(=O)(=O)[O-])c3ccccc3C2(C)C)cc1.[Na+] [CypH-6] | 150,400 M^−1cm^−1 | 768# nm | >1 mM in | 10.8 | 4359 | 789 nm | 405 | 791 nm | – | – | –
CCCN1/C(=C/C=C2\CCCC(/C=C/C3=[N+](CCC)c4ccccc4C3(C)C)=C2Oc2ccc(N(C)C(C)C)cc2)C(C)(C)c2ccccc21.[I-] [CypH-16] | 248,000 M^−1cm^−1 | 771 nm | – | 26.6 | 4847 | 791 nm | 182 | 783 nm | >1 mM in | – | –
CCN(C)c1ccc(OC2=C(/C=C/C3=[N+](CC)c4ccccc4C3(C)C)CCC/C2=C\C=C2\N(CC)c3ccccc3C2(C)C)cc1 [CypH-7] | 179,500 M^−1cm^−1 | 764 nm | – | 27.8 | 5681 | 788 nm | 204 | 786 nm | – | > 1000 µM | –
CCCN1/C(=C/C=C2\CCCC(/C=C/C3=[N+](CCC)c4ccccc4C3(C)C)=C2Oc2ccc(N(C)C)cc2)C(C)(C)c2ccccc21.[I-] [CypH-15] | 251,500 M^−1cm^−1 | 772 nm | – | 53.2 | 4313 | 791 nm | 81 | 786 nm | >1 mM in | – | –
